Measurements taken from US11318151B2, “Compound pharmaceutical composition for treating skin inflammatory diseases” (Hefei Industrial Pharmaceutical Institute Co., Ltd., priority 2018, dated 2022).

How the values were obtained:
[1] = test system: Phorbol Ester-Induced Mouse Ear Swelling Model; assay: Phorbol ester-induced mouse ear swelling model; format: in vivo, SPF ICR mice; details: 6 h after modeling; for Right ear (ear thickness): phorbol ester 5 μg/20 μL/ear, drug 20 μL/ear 30 min before and 15 min after modeling, thickness gauge; for Swelling degree: right minus left ear thickness, drug 20 μL/ear in DMSO 30 min before and 15 min after modeling; for Inhibition rate of the swelling: vs. model group, ear thickness
Experimental: 1. Therapeutic Effects of the Compound Pharmaceutical Composition of the Disclosure on a Phorbol Ester-Induced Mouse Ear Swelling Model
SPF ICR mice, male, 18-22 g, randomly divided into compound groups with different compound ratios and a model group according to body weight, 10 mice for each group. The test drug is dissolved in a 20 μL solvent of DMSO. The specific group numbers are as follows:
(1) Compound groups with different compound ratios
Tofacitinib:crisaborole=2 mg:2 mg/20 μL (dose ratio=1:1; group a); tofacitinib:crisaborole=2 mg:1 mg/20 μL (dose ratio=2:1; group b); tofacitinib:crisaborole=2 mg:0.5 mg/20 μL (dose ratio=4:1; group c); tofacitinib:crisaborole=2 mg:0.25 mg/20 μL (dose ratio=8:1; group d); tofacitinib:crisaborole=2 mg:0.2 mg/20 μL (dose ratio=10:1; group e); tofacitinib:crisaborole=2 mg:0.125 mg/20 μL (dose ratio=16:1; group f); tofacitinib:crisaborole=1 mg: 2 mg/20 μL (dose ratio=1:2; group g); tofacitinib:crisaborole=0.5 mg:2 mg/20 μL (dose ratio=1:4; group h); tofacitinib:crisaborole=0.25 mg:2 mg/20 μL (dose ratio=1:8; group i); tofacitinib:crisaborole=0.2 mg:2 mg/20 μL (dose ratio=1:10; group j); tofacitinib:crisaborole=0.125 mg:2 mg/20 μL (dose ratio=1:16; group k). (2) Model Group (3) Crisaborole (4 mg/20 ul) (4) Tofacitinib (4 mg/20 ul) (5) Blank group: applying with 20 μL DMSO as a solvent for comparison. Experimental Method:
For the mice of each group, 20 ul (5 μg/20 μL/ear) of phorbol ester is applied to the front and back of the right ear for modeling, and 20 μL solvent medium (acetone) is applied to the left ear; except for the model group, the right ears of the mice in each administration group are applied with corresponding drugs 20 μL/ear 30 minutes before and 15 minutes after modeling, respectively. 6 h after modeling, the ear swelling is measured with a thickness gauge as an indicator of inflammation; then, the animals are sacrificed, the ears are cut and punched with a 6 mm punch, the ear pieces are weighed, and the swelling degree (weight) is calculated.

atopic dermatitis = details: topical 2% tofacitinib, clinical phase II; cited from earlier work

SMILES	Right ear (ear thickness) [1]	Swelling degree [1]	Inhibition rate of the swelling [1] [%]	itching symptoms in patients (atopic dermatitis)	therapeutic effect on atopic dermatitis (atopic dermatitis)
N#Cc1ccc(Oc2ccc3c(c2)COB3O)cc1 [Crisaborole, crisaborole]	43.0 ± 3.7 10^−2 mm	13.3 ± 3.4^Δ 10^−2 mm	30.0	–	–
C[C@@H]1CCN(C(=O)CC#N)C[C@@H]1N(C)c1ncnc2[nH]ccc12 [Tofacitinib, tofacitinib]	41.6 ± 3.4 10^−2 mm	12.4 ± 3.2^ΔΔ 10^−2 mm	34.7	can improve itching symptoms in patients	a certain therapeutic effect on atopic dermatitis
